Literature values, collected in patent publication US20050202001A1 (priority 2002, published 2005).

What was measured:
[1] = test system: normal human neonatal melanocytes

## COc1cccc(-c2cc(=O)c3ccccc3o2)c1N [PD98059]
[1]
  melanogenesis: stimulated melanogenesis
Human melanoma cells
  melanogenesis: stimulated melanogenesis
